Test results reported in publication PMC10786919, “Design-rules for stapled peptides with in vivo activity and their application to Mdm2/X antagonists” (Nature Communications, 2024).
pEC50: −log10 of the molar value. Values after ≈ are worked out from the molar mass of the structure shown. Like-named read-outs stand apart in the source and are kept apart here. Positions of bridges follow the written chain, without caps; N, C: chain ends. Non-standard residues stand in square brackets, D forms with d. Residues, ends and D or L forms follow the SMILES beside them. Phe(3,4-Cl2) = N[C@@H](Cc1ccc(Cl)c(Cl)c1)C(=O)O; Phe(3-CF3) = N[C@@H](Cc1cccc(C(F)(F)F)c1)C(=O)O; Lys(N3) = [N-]=[N+]=NCCCC[C@H](N)C(=O)O; R8 = C=CCCCCCC[C@@](C)(N)C(=O)O; Cba = N[C@@H](CC1CCC1)C(=O)O; S5 = C=CCCC[C@](C)(N)C(=O)O; Aib = CC(C)(N)C(=O)O; βAla = NCCC(=O)O

Tests used:
[1] = Lactate dehydrogenase (LDH) release assay; format: cell-based
Procedure, shortened: (§1)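 LDH release, fluorometric membrane-integrity read-out; HCT116 with stable p53-responsive β-lactamase reporter; 8000 cells/well; 0.5% DMSO final; geometric mean, n≥3 biological replicates.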

[2] = test system: HCT116 cells; assay: Lactate dehydrogenase (LDH) release assay; format: cell-based
Procedure, shortened: as §1

[3] = in vitro
Procedure, shortened: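 Azido-peptide permeability was read as loss of NanoBRET signal (donor 450 nm, acceptor 610 nm) after adding NanoBret618-azide at 10 μM final.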

[4] = Solubility assay (kinetic solubility, PBS pH 7); format: physicochemical; settings: pH 7, PBS; for solubility kinetic: pH 7, aqueous buffer, kinetic from dmso stock, read-out: Solubility
Procedure, shortened: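 Quantitation uses an external standard at 100 µM, prepared from 10 mM stock in acetonitrile:methanol:DMSO (10:80:10). Solubility (µM) = (peak area of sample ÷ peak area of standard) × standard concentration.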

[5] = Experimental LogD (partition coefficient); settings: for logD: Partition Coeff LogD
[6] = physchem
[7] = Nanoclick permeability assay EC50

Row | SMILES | pEC50 ([1]; LDH: Cytotoxicity assay: EC50) | LDH: Cytotoxicity assay: % Effect [2] | cell entry EC50 [3, 7] | Solubility [4] | Partition Coeff LogD [5] | EPSA [6] | solubility kinetic [4] | logD ([5]; not stated) | pEC50 ([1]; 0% FBS 4Hr, read-out: LDH: Cytotoxicity assay: EC50) | pEC50 ([1]; 10% FBS 4Hr, read-out: LDH: Cytotoxicity assay: EC50) | LDH: Cytotoxicity assay: % Effect ([2]; 0% FBS 4Hr) | LDH: Cytotoxicity assay: % Effect ([2]; 10% FBS 4Hr) | cell entry EC50 [3] | logD ([5]; experimental)
1 | CC(=O)N[C@@H](CCCCN=[N+]=[N-])C(=O)NCCC(=O)N[C@@H](CC(C)C)C(=O)N[C@H](C(=O)N[C@@H](Cc1ccccc1)C(=O)N[C@]1(C)CCCCCCC=CCCC[C@@](C)(C(=O)N2CCC[C@H]2C(=O)N[C@@H](C)C(=O)N[C@@H](C)C(N)=O)NC(=O)[C@H](CC2CCC2)NC(=O)[C@H](CCC(N)=O)NC(=O)[C@H](C)NC(=O)[C@H](Cc2c[nH]c3ccccc23)NC(=O)[C@H](Cc2ccc(O)cc2)NC(=O)[C@H](CCC(=O)O)NC1=O)[C@@H](C)O [MP-184] (Ac-[Lys(N3)][βAla]LTF[R8]EYWAQ[Cba][S5]PAA-NH2; staple 6-13) | < 4.30 | 10.48% | 360 nM | Poorly Behaved | Poorly Behaved | 201 A^2 |  |  |  |  |  |  |  | 
2 | CC(=O)N[C@@H](CCCCN=[N+]=[N-])C(=O)NCCC(=O)NCC(=O)N[C@H](C(=O)N[C@@H](Cc1ccccc1)C(=O)N[C@]1(C)CCCCCCC=CCCC[C@@](C)(C(=O)N[C@@H](CO)C(=O)N[C@@H](C)C(=O)N[C@@H](C)C(N)=O)NC(=O)[C@H](CC2CCC2)NC(=O)[C@H](CCC(N)=O)NC(=O)CNC(=O)[C@H](Cc2c[nH]c3ccccc23)NC(=O)[C@H](Cc2ccc(O)cc2)NC(=O)CNC1=O)[C@@H](C)O [MP-692] (Ac-[Lys(N3)][βAla]GTF[R8]GYWGQ[Cba][S5]SAA-NH2; staple 6-13) | < 4.30 | 2.18% | 1390 nM |  |  | 200 A^2 | 2 µM (≈ 3.66 µg/mL) | 2.73 |  |  |  |  |  | 
3 | CC(=O)N[C@@H](CCCCN=[N+]=[N-])C(=O)NCCC(=O)N[C@@H](CC(C)C)C(=O)N[C@H](C)C(=O)N[C@@H](Cc1ccccc1)C(=O)N[C@]1(C)CCCCCCC=CCCC[C@@](C)(C(=O)N[C@@H](CO)C(=O)N[C@@H](C)C(=O)N[C@@H](C)C(N)=O)NC(=O)[C@H](CC2CCC2)NC(=O)[C@H](CCC(N)=O)NC(=O)[C@H](C)NC(=O)[C@H](Cc2c[nH]c3ccccc23)NC(=O)[C@H](Cc2ccc(O)cc2)NC(=O)[C@H](CCC(=O)O)NC1=O [MP-7471] (Ac-[Lys(N3)][βAla]L[dA]F[R8]EYWAQ[Cba][S5]SAA-NH2; staple 6-13) | < 4.30 | 0.465% | > 10000 nM |  |  | 229 A^2 | 93.5 µM (≈ 181 µg/mL) | 2.95 |  |  |  |  |  | 
4 | CC(=O)N[C@@H](CCCCN=[N+]=[N-])C(=O)NCCC(=O)N[C@@H](CC(C)C)C(=O)N[C@H](C(=O)N[C@@H](Cc1ccccc1)C(=O)N[C@]1(C)CCCCCCC=CCCC[C@@](C)(C(=O)N[C@@H](CO)C(=O)N[C@@H](C)C(=O)N[C@@H](C)C(N)=O)NC(=O)[C@H](CC2CCC2)NC(=O)[C@H](CCC(N)=O)NC(=O)[C@H](C)NC(=O)[C@H](Cc2c[nH]c3ccccc23)NC(=O)[C@H](Cc2ccccc2)NC(=O)[C@H](CCC(=O)O)NC1=O)[C@@H](C)O [MP-028] (Ac-[Lys(N3)][βAla]LTF[R8]EFWAQ[Cba][S5]SAA-NH2; staple 6-13) | 5.07 | 33.41% | 46.4 nM |  |  | 197 A^2 | 6 µM (≈ 11.7 µg/mL) | 3.2 |  |  |  |  |  | 
5 | CC(C)C[C@@H]1NC(=O)[C@H](C)NC(=O)[C@H](Cc2c[nH]c3ccccc23)NC(=O)[C@H](Cc2ccc(O)cc2)NC(=O)[C@H](CCC(=O)O)NC(=O)[C@](C)(NC(=O)[C@H](Cc2ccccc2)NC(=O)[C@H](CO)NC(=O)[C@@H](NC(=O)CCNC(=O)[C@@H](N)CCCCN=[N+]=[N-])[C@@H](C)O)CCCCCCC=CCCC[C@@](C)(C(N)=O)NC(=O)[C@H](CC(C)C)NC1=O [MP-0177] | < 4.30 | -0.29% | 130 nM | Poorly Behaved |  | 218 A^2 |  | 2.7 |  |  |  |  |  | 
6 | CC(=O)N[C@@H](CCCCN=[N+]=[N-])C(=O)NCCC(=O)N[C@@H](CC(C)C)C(=O)N[C@H](C(=O)N[C@@H](Cc1ccccc1)C(=O)N[C@]1(C)CCCCCCC=CCCC[C@@](C)(C(=O)N[C@@H](CO)C(=O)NC(C)(C)C(=O)N[C@@H](C)C(N)=O)NC(=O)[C@H](CC2CCC2)NC(=O)[C@H](CCC(N)=O)NC(=O)[C@H](C)NC(=O)[C@H](Cc2c[nH]c3ccccc23)NC(=O)[C@H](Cc2ccc(O)cc2)NC(=O)[C@H](CCC(=O)O)NC1=O)[C@@H](C)O [MP-257] (Ac-[Lys(N3)][βAla]LTF[R8]EYWAQ[Cba][S5]S[Aib]A-NH2; staple 6-13) | 5.34 | -4.69% | 469 nM |  |  | 210 A^2 | 25 µM (≈ 49.6 µg/mL) | 2.97 |  |  |  |  |  | 
7 | CC(=O)N[C@@H](CCCCN=[N+]=[N-])C(=O)NCCC(=O)N[C@@H](CC(C)C)C(=O)N[C@H](C(=O)N[C@@H](Cc1ccccc1)C(=O)N[C@]1(C)CCCCCCC=CCCC[C@@](C)(C(=O)N[C@@H](CO)C(=O)N[C@@H](C)C(=O)N[C@@H](C)C(N)=O)NC(=O)[C@H](CC2CCC2)NC(=O)[C@H](CCC(N)=O)NC(=O)[C@H](C)NC(=O)[C@H](Cc2cccc(C(F)(F)F)c2)NC(=O)[C@H](Cc2ccc(O)cc2)NC(=O)[C@H](CCC(=O)O)NC1=O)[C@@H](C)O [MP-030] (Ac-[Lys(N3)][βAla]LTF[R8]EY[Phe(3-CF3)]AQ[Cba][S5]SAA-NH2; staple 6-13) | < 4.30 | 8.06% | 408 nM | Poorly Behaved | Poorly Behaved | 192 A^2 |  |  |  |  |  |  |  | 
8 | CC(=O)N[C@@H](CCCCN=[N+]=[N-])C(=O)NCCC(=O)N[C@@H](CC(C)C)C(=O)N[C@H](C(=O)N[C@@H](Cc1ccccc1)C(=O)N[C@]1(C)CCCCCCC=CCCC[C@@](C)(C(=O)N[C@@H](CO)C(=O)N[C@@H](C)C(=O)N[C@@H](C)C(N)=O)NC(=O)[C@H](CC2CCC2)NC(=O)[C@H](CCC(N)=O)NC(=O)[C@H](C)NC(=O)[C@H](Cc2ccc(Cl)c(Cl)c2)NC(=O)[C@H](Cc2ccc(O)cc2)NC(=O)[C@H](CCC(=O)O)NC1=O)[C@@H](C)O [MP-765] (Ac-[Lys(N3)][βAla]LTF[R8]EY[Phe(3,4-Cl2)]AQ[Cba][S5]SAA-NH2; staple 6-13) | < 4.30 | 2.873% | 1830 nM | Poorly Behaved | Poorly Behaved | 199 A^2 |  |  |  |  |  |  |  | 
9 | CC(=O)N[C@@H](CCCCN=[N+]=[N-])C(=O)NCCC(=O)N[C@@H](CC(C)C)C(=O)N[C@H](C(=O)N[C@@H](Cc1ccccc1)C(=O)N[C@]1(C)CCCCCCC=CCCC[C@@](C)(C(=O)N[C@@H](CO)C(=O)N[C@@H](C)C(=O)N[C@@H](C)C(N)=O)NC(=O)[C@H](CC2CCC2)NC(=O)[C@H](CCC(N)=O)NC(=O)[C@H](CC(C)C)NC(=O)[C@H](Cc2c[nH]c3ccccc23)NC(=O)[C@H](Cc2ccc(O)cc2)NC(=O)[C@H](CC(C)C)NC1=O)[C@@H](C)O [MP-693, AZIDE-ATSP-7041 (E5L, A8L)] (Ac-[Lys(N3)][βAla]LTF[R8]LYWLQ[Cba][S5]SAA-NH2; staple 6-13) |  |  |  |  |  | 196 A^2 | < 1 µM | 4.68 | < 4.30 | < 4.30 | -2.781% | 12.6% | 290 nM | 2.92
